Laboratory results taken from publication PMC4216204 (Journal of Medicinal Chemistry, 2014).

Legend:
[1] = tested on: CRL-2351 breast cancer cells; assay: Sulforhodamine B; type: cell-based; details: Homo sapiens, 120 h, read-out: SRB assay IC50 CRL-2351
[2] = tested on: AML progenitors; details: ref 23 (Tamburini et al.); cited from earlier work
[3] = tested on: xenograft tumor; details: mouse model of human cancer; cited from earlier work

IC50 [1] | SMILES | clonogenic growth of AML progenitors [2] | inhibition of xenograft tumor growth [3]
> 20 µM | COc1cc2c(cc1OC)-c1nc(N/N=C(\Cc3ccccc3[N+](=O)[O-])C(=O)O)sc1CO2 [(E)-46a, 2-(2-(7,8-Dimethoxy-4H-chromeno[4,3-d]thiazol-2-yl)hydrazono)-3-(2-nitrophenyl)propanoic Acid] | – | –
> 20 µM | COc1ccc2c(c1OC)OCc1sc(N/N=C(\Cc3ccccc3[N+](=O)[O-])C(=O)O)nc1-2 [(E)-46b, 2-(2-(6,7-Dimethoxy-4H-chromeno[4,3-d]thiazol-2-yl)hydrazono)-3-(2-nitrophenyl)propanoic Acid] | – | –
> 20 µM | COc1cc2c(cc1OC)-c1nc(N/N=C(\Cc3ccccc3[N+](=O)[O-])C(=O)O)sc1CC2 [(E)-46c, 2-(2-(7,8-Dimethoxy-4,5-dihydronaphtho[1,2-d]thiazol-2-yl)hydrazono)-3-(2-nitrophenyl)propanoic Acid] | – | –
> 20 µM | COc1cc2c(cc1OC)-c1nc(N/N=C(/Cc3ccccc3[N+](=O)[O-])C(=O)O)sc1CO2 [(Z)-46a, 2-(2-(7,8-Dimethoxy-4H-chromeno[4,3-d]thiazol-2-yl)hydrazono)-3-(2-nitrophenyl)propanoic Acid] | – | –
> 20 µM | COc1ccc2c(c1OC)OCc1sc(N/N=C(/Cc3ccccc3[N+](=O)[O-])C(=O)O)nc1-2 [(Z)-46b, 2-(2-(6,7-Dimethoxy-4H-chromeno[4,3-d]thiazol-2-yl)hydrazono)-3-(2-nitrophenyl)propanoic Acid] | – | –
> 20 µM | COc1cc2c(cc1OC)-c1nc(N/N=C(/Cc3ccccc3[N+](=O)[O-])C(=O)O)sc1CC2 [(Z)-46c, 2-(2-(7,8-Dimethoxy-4,5-dihydronaphtho[1,2-d]thiazol-2-yl)hydrazono)-3-(2-nitrophenyl)propanoic Acid] | – | –
– | O=C(O)C(Cc1ccccc1[N+](=O)[O-])=NNc1nc(-c2ccc(Cl)c(Cl)c2)cs1 [compound 1, (2-(2-(4-(3,4-dichlorophenyl)thiazol-2-yl)hydrazono)-3-(2-nitrophenyl)propanoic acid)] | dramatically reduces the clonogenic growth of AML progenitors | effectively inhibits xenograft tumor growth
